Source: patent US10703784B2, “Antigens and epitopes derived from Mycobacterium tuberculosis” (priority 2011, dated 2020)
Where “and” joins values, the source holds several entries; their conditions need not be identical. Identical values can stand only once.

Legend:
[1] = test system: PBMCs from LTBI donors (IFN-γ production); type: cell-based, human; conditions: individual MTB epitope peptide; one value per responding LTBI donor
[2] = test system: PBMCs depleted of CD4+ or CD8+ T cells; type: cell-based, human; conditions: phenotype of the responding T cells per donor; n.d. = assay not done

Row | Sequence | SFC [1] | T cell phenotype [2]
1 | ALSAEYAAVAQELSV | 31.7 and 46.7 | CD4
2 | ALSRVHSMFLGTGGS | 71.7 and 43.3 | CD4
3 | APQINFFYYLGEPIV | 20.0 | undetectable
4 | APYVAWMRATAIQAE | 41.7 | undetectable
5 | AQIYQAVSAQAAAIH | 225.0 and 86.7 | CD4
6 | AQLSQLISLLPSTLQ | 50.0 and 51.7 and 23.3 | undetectable
7 | AQNGVQAMSSLGSSL | 46.7 | CD4
8 | AWMSAAAAQAEQAAT | 25.0 | undetectable
9 | AYGSFVRTVSLPVGA | 271.7 and 45.0 | CD4
10 | DPMVQIPRLVANNTR | 60.0 | undetectable
11 | DYVRMWVQAATVMSA | 343.3 and 38.3 and 31.7 and 81.7 and 28.3 | CD4 (3×) and CD4/CD8 and undetectable
12 | EIVQFLEETFAAYDQ | 103.3 and 105.0 and 25.0 and 80.0 | CD4 (3×) and undetectable
13 | ELFVAAYVPYVAWLV | 25.0 and 20.0 and 30.0 and 21.7 and 28.3 | undetectable
14 | FFGQNTAAIAATEAQ | 193.3 and 165.0 | CD4
15 | FGQNTASIAATEAQY | 110.0 and 26.7 | CD4
16 | FGQNTGAIAAAEARY | 108.3 and 276.7 | CD4
17 | FGQNTSAIAAAEAQY | 161.7 and 176.7 | CD4
18 | FVQALTTAAASYASV | 26.7 and 23.3 | undetectable
19 | GEEYLILSARDVLAV | 136.7 and 60.0 and 145.0 and 151.7 and 45.0 and 53.3 | CD4 (4×) and undetectable (2×)
20 | GINTIPIAINEAEYV | 120.0 and 201.7 and 20.0 and 118.3 | CD4 (2×) and undetectable

Row | Sequence | SFC [1] | T cell phenotype [2]
21 | GQNYTYKWETFLTRE | 26.7 and 66.7 and 50.0 (2×) and 33.3 | CD4 and undetectable (4×)
22 | GTVVLTATFALGAAL | 33.3 and 128.3 and 71.7 and 30.0 | CD4 (2×) and undetectable (2×)
23 | GWIISNIFGAIPVLG | 195.0 and 41.7 and 58.3 and 26.7 | CD4 and undetectable (3×)
24 | GWSSLGREYAAVAEE | 185.0 | CD4
25 | ILPIAEMSVVAMEFG | 111.7 and 26.7 and 33.3 | CD4 and undetectable (2×)
26 | INLIIHYVDRPGALG | 31.7 | undetectable
27 | IQARAAALAFEQAYA | 23.3 and 33.3 | CD4 and undetectable
28 | IVQINGRHFDLRAQG | 26.7 | undetectable
29 | LAAAAAWDALAAELY | 170.0 and 78.3 and 411.7 | CD4
30 | LALVGFLGGLITGIS | 65.0 (2×) and 36.7 and 25.0 | CD4 and undetectable (3×)
31 | LAWLVQASANSAAMA | 25.0 | undetectable
32 | LGGLWTAVSPHLSPL | 38.3 and 25.0 | CD4
33 | LLEFAVVLELAILSI | 26.7 | undetectable
34 | LSPISNMVSMANNHM | 70.0 and 115.0 and 43.3 and 28.3 | CD4 and undetectable (3×)
35 | MHVSFVMAYPEMLAA | 165.0 and 290.0 and 181.7 and 283.3 | CD4
36 | MSFVTTQPEALAAAA | 121.7 | CD4
37 | PSPSMGRDIKVQFQS | 45.0 and 46.7 | undetectable
38 | QVPSASMGRDIKVQF | 53.3 and 48.3 | undetectable
39 | RGKVVLIDFWAYPCI | 35.0 | undetectable
40 | SARLRLLRDRLVEGV | 138.3 and 23.3 | CD4 and undetectable
